Data published in ChEMBL document CHEMBL5390243, “Catecholamine Derivatives: Natural Occurrence, Structural Diversity, and Biological Activity” (J Nat Prod, 2023).
pEC50, pIC50: −log10 of the molar value. ≈ marks a conversion by molar mass, not a printed value.

Columns and labels:
RAW264.7 [1] = assay: Antiinflammatory activity against LPS-induced mouse RAW264.7 cells assessed as maximal inhibition of TNF-alpha production at 10 to 100 nM incubated for 48 hrs by ELISA analysis relative to control; type: functional; set-up: scale not given: the % may be the effect or the level left; conditions: dose 10-100 nM
RAW264.7 [2] = assay: Anti-inflammatory activity against mouse RAW264.7 cells assessed as inhibition of LPS-induced NO production at 25 uM; type: functional; set-up: scale not given: the % may be the effect or the level left
Acetylcholinesterase = Acetylcholinesterase (Homo sapiens, UniProt P22303); assay: Inhibition of human recombinant acetylcholinesterase using acetylthiocholine as substrate by spectrophotometric analysis
Chain of Acetylcholinesterase (P22303 whole entry): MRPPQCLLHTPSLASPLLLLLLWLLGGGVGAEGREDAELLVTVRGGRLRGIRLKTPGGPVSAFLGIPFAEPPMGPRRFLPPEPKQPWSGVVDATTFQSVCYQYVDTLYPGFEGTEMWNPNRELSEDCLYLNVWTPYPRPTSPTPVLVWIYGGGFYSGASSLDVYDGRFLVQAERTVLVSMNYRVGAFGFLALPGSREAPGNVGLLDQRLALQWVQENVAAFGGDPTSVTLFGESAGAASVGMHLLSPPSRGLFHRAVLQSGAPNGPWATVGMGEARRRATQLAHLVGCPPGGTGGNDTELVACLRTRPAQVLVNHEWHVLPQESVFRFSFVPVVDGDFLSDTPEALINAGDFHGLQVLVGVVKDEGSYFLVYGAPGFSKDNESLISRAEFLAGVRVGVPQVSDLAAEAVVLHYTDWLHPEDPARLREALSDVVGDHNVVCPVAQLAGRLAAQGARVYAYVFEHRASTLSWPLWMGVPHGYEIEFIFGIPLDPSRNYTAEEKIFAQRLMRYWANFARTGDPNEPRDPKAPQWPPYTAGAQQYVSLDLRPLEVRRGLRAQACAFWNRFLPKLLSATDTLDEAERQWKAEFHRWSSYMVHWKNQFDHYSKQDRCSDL

RAW264.7 [3] = assay: Antiinflammatory activity against mouse RAW264.7 cells assessed as inhibition of LPS-induced TNF-alpha production at 25 uM measured after 24 hrs by ELISA method relative to control; type: functional; set-up: scale not given: the % may be the effect or the level left
RAW264.7 [4] = assay: Anti-inflammatory activity against mouse RAW264.7 cells assessed as inhibition of LPS-induced nitric oxide production at 50 uM preincubated for 2 hrs with compound followed by LPS-stimulation and measured after 24 hrs by Griess reagent based analysis; type: functional, cell-based
[5] = Antioxidant activity assessed as DPPH radical scavenging activity measured for 45 mins by spectrophotometric analysis; type: functional
RAW264.7 [6] = assay: Anti-inflammatory activity in mouse RAW264.7 cells assessed as inhibition of LPS-induced TNFalpha production at 20 uM preincubated for 1 hr followed by LPS addition and measured after 24 hrs; type: functional; set-up: scale not given: the % may be the effect or the level left; conditions: time 25 hrs
[7] = Immunosuppressive activity in Kunming mouse splenocyte assessed as reduction in ConA-stimulated T-lymphocytes proliferation incubated for 72 hrs by CCK-8 assay; type: functional, cell-based; conditions: T-cell
[8] = molecular target: Beta-1 adrenergic receptor (Homo sapiens) (UniProt P08588); assay: Agonist activity at ARbeta1 (unknown origin) expressed in CHO-K1 cells co-expressing G alpha 15 assessed as inhibition of isoproterenol induced calcium response upto 100 uM incubated for 10 mins by calcium mobilization assay relative to control; type: functional, cell-based; conditions: filed as agonist
Chain of Beta-1 adrenergic receptor (Homo sapiens) (P08588 whole entry, looked up): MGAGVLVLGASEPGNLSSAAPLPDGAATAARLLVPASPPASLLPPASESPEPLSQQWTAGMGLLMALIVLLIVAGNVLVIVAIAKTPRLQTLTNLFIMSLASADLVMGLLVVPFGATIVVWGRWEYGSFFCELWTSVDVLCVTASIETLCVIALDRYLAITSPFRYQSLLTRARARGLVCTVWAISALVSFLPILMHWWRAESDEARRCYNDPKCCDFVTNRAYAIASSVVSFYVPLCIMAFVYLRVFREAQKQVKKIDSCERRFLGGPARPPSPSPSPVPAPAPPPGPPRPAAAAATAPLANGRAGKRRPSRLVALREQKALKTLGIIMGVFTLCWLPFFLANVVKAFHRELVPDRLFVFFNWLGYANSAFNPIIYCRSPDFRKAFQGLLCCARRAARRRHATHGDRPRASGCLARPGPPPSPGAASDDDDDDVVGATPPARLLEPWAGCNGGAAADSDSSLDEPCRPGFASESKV

[9] = molecular target: Alpha-1A adrenergic receptor (Homo sapiens) (UniProt P35348); assay: Antagonist activity at ARalpha1A (unknown origin) expressed in HEK293 cells co-expressing Galpha16 assessed as inhibition of Phenylephrine induced calcium response upto 100 uM incubated for 10 mins by calcium mobilization assay; type: functional, cell-based
Chain of Alpha-1A adrenergic receptor (Homo sapiens) (P35348 whole entry): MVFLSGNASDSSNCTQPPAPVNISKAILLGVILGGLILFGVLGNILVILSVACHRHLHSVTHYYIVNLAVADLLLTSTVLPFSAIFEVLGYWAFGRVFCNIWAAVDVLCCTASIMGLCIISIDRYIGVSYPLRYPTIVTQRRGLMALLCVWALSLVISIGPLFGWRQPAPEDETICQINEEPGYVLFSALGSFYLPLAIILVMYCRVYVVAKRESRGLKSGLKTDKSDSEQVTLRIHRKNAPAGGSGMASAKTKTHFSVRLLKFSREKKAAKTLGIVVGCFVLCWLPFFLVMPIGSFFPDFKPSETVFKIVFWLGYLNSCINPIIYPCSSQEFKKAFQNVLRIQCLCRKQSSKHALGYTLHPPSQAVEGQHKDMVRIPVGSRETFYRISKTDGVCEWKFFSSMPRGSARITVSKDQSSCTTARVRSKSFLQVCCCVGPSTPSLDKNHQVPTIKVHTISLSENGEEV

Nakaseomyces glabratus = assay: Antifungal activity against Candida glabrata assessed as reduction in fungal growth incubated for 24 hrs by serial dilution method; type: functional
CCF-STTG1 = assay: Cytotoxicity against human CCF-STTGI assessed as reduction in cell viability measured after 48 hrs by MTT assay; type: functional, cell-based; conditions: CCF-STTG1, 48 h
[10] = Cytotoxicity against human SHG-44 cells assessed as reduction in cell viability measured after 48 hrs by MTT assay; type: functional, cell-based; conditions: SHG-44, 48 h
[11] = Cytotoxicity against human CHG-5 cells assessed as reduction in cell viability measured after 48 hrs by MTT assay; type: functional, cell-based; conditions: CHG-5, 48 h
U-251 = assay: Cytotoxicity against human U-251 cells assessed as reduction in cell viability measured after 48 hrs by MTT assay; type: functional, cell-based; conditions: U-251, 48 h
HL-60 = assay: Cytotoxicity against human HL-60 cells assessed as reduction in cell viability measured after 48 hrs by MTT assay; type: functional, cell-based; conditions: HL-60, 48 h
SMMC-7721 = assay: Cytotoxicity against human SMMC-7721 cells assessed as reduction in cell viability incubated for 48 hrs by MTT assay; type: functional, cell-based; conditions: SMMC-7721, 48 h
SW480 = assay: Cytotoxicity against human SW480 cells assessed as reduction in cell viability incubated for 48 hrs by MTT assay; type: functional, cell-based; conditions: SW480, 48 h
RAW264.7 [12] = assay: Antiinflammatory activity in LPS-induced mouse RAW264.7 cells assessed as reduction in COX-2 level at 100 uM pretreated for 1 hr followed by LPS stimulation and measured after 48 hrs by ELISA relative to control; type: functional; set-up: scale not given: the % may be the effect or the level left; conditions: time 49 hrs
RAW264.7 [13] = assay: Antiinflammatory activity against mouse RAW264.7 cells assessed as inhibition of LPS-induced nitric oxide production at 25 uM measured after 24 hrs relative to control; type: functional; set-up: scale not given: the % may be the effect or the level left
Trypanosoma cruzi = assay: Antiprotozoal activity against Trypanosoma cruzi Y strain infected in Swiss albino mouse model assessed as reduction in parasitemia measured after 24 hrs; type: functional, organism-based
[14] = Immunosuppressive activity in Kunming mouse splenocyte assessed as reduction in ConA-stimulated T-lymphocytes proliferation at 20 uM incubated for 72 hrs by CCK-8 assay relative to control; type: functional, T-cell; set-up: scale not given: the % may be the effect or the level left
RAW264.7 [15] = assay: Antiinflammatory activity against mouse RAW264.7 cells assessed as inhibition of LPS-induced TNF-alpha secretion at 20 uM after 24 hrs by ELISA relative to control; type: functional; set-up: scale not given: the % may be the effect or the level left
RAW264.7 [16] = assay: Antiinflammatory activity against mouse RAW264.7 cells assessed as inhibition of LPS-induced TNF-alpha secretion at 4 uM after 24 hrs by ELISA relative to control; type: functional; set-up: scale not given: the % may be the effect or the level left
[17] = Immunosuppressive activity in Kunming mouse splenocyte assessed as inhibition of LPS-induced B-lymphocytes proliferation at 20 uM incubated for 72 hrs by CCK-8 assay relative to control; type: functional; set-up: scale not given: the % may be the effect or the level left
[18] = Antioxidant activity assessed as DPPH radical scavenging activity measured after 30 mins by spectrophotometric analysis; type: functional

## O=C(/C=C/c1ccc(O)c(O)c1)N[C@@H](Cc1ccc(O)c(O)c1)C(=O)O
RAW264.7 [1]
  Activity: 80%

## CC(=O)N/C=C/c1ccc(O)c(O)c1
RAW264.7 [2]
  Activity: 32.9%

## O=C1NCCc2c1ccc(O)c2O
Acetylcholinesterase
  pEC50: 4.18

## Cc1cncc(-c2ccc(O)c(O)c2)n1
RAW264.7 [3]
  Activity: 47.36%

## O=C(O)[C@@H]1Cc2cc(O)c(O[C@@H]3O[C@H](CO)[C@@H](O)[C@H](O)[C@H]3O)cc2N1C(=O)/C=C/c1ccc(O[C@@H]2O[C@H](CO)[C@@H](O)[C@H](O)[C@H]2O)cc1
RAW264.7 [4]
  pIC50: 4.17
[5]
  pEC50: 4.42

## CC(=O)NCCc1cc(O)c(O)cc1S(C)(=O)=O
RAW264.7 [6]
  Activity: 52.77%
[7]
  pIC50: 4.48

## Oc1cc2c(cc1O)[C@@H](Cc1ccccc1)NCC2
[8]
  inhibition: 80.3%
[9]
  inhibition: 6.1%

## C[C@H](N)[C@H](CCCCCCCCCCCC/C=C/C(O)CCCCCCC[C@@H]1NCCc2cc(O)c(O)cc21)O[C@@H]1O[C@@H](CO)[C@@H](O)[C@@H](O)[C@@H]1O (stereo partly specified)
Nakaseomyces glabratus
  MIC: 25 µg/mL (≈ 34.6 µM)

## Oc1cc2c3c(c1O)c1cc4c(cc1c[n+]3CC2)OCO4
CCF-STTG1
  pIC50: 5.03
[10]
  pIC50: 5.03
[11]
  pIC50: 5.03
U-251
  pIC50: 5.03
HL-60
  pIC50: 5.03
SMMC-7721
  pIC50: 5.03
SW480
  pIC50: 5.03
RAW264.7 [12]
  Activity: 96.5%

## Oc1ccc(-c2cnccn2)cc1O
RAW264.7 [13]
  Activity: 42.11%

## OC[C@H]1O[C@@H](NCCc2ccc(O)c(O)c2)[C@H](O)[C@@H](O)[C@@H]1O
Trypanosoma cruzi
  pIC50: 6.09

## O=CN1CCc2cc(O)c(O)cc2C1
[14]
  Activity: 31.27%
RAW264.7 [15]
  Activity: 31.63%
RAW264.7 [16]
  Activity: 20.9%
[17]
  Activity: 24.18%

## O=C1c2cc(O)c(O)cc2CCn2cccc21
[18]
  pEC50: 4.84
